System: blood sugar
Assay: Test Example 1: average fall of the blood sugar in rabbits after insulin
Assay type: in vivo, New Zealand rabbits
Conditions: subcutaneous 2 IU/rabbit, level at 0 min = 100%
Method: The composition contained insulin at […] (5 insulin units (IU)/rabbit).
The composition was nasally administered to six male New Zealand rabbits at one time, and the average fall of the blood sugar was measured at 0, 15, 30, 60, 120 and 180 min after administration.
For comparison, 2 IU/rabbit of insulin was subcutaneously injected to six male New Zealand rabbits and the average fall of the blood sugar was measured at 0, 60, 120, 240, and 360 min after administration.
The results are shown in Table 1, in which the average fall of the blood sugar is indicated in percentage assuming the blood sugar level at 0 min to be 100%.

insulin [Control]
Blood sugar level (% of 0-min level) (0 min after administration): 100%
Blood sugar level (% of 0-min level) (60 min after administration): 57%
Blood sugar level (% of 0-min level) (120 min after administration): 56%
Blood sugar level (% of 0-min level) (240 min after administration): 84%
Blood sugar level (% of 0-min level) (360 min after administration): 94%
